Measured values: the NIST ThermoML archive (doi:10.1016/j.fluid.2015.09.030)
Numbers after ± are expanded uncertainties. Each block holds one compound with its values, some of them ahead of it.

Conditions: Liquid, Ebulliometric method (Recirculating still)

Structure (SMILES): Cc1cc(C)cc(C)c1 [1,3,5-trimethylbenzene]
vapor or sublimation pressure (437.83 K): 101.33 ± 0.46 kPa

Structure (SMILES): c1ccccc1 [benzene]
vapor or sublimation pressure (353.15 K): 101.33 ± 0.46 kPa

The remaining lines, values ahead:

vapor or sublimation pressure (409.96 K): 101.33 ± 0.46 kPa
Structure (SMILES): Cc1ccc(C)s1 [2,5-dimethylthiophene]

vapor or sublimation pressure (407.14 K): 101.33 ± 0.46 kPa
Structure (SMILES): CCc1cccs1 [2-ethylthiophene]

vapor or sublimation pressure (447.46 K): 101.33 ± 0.46 kPa
Structure (SMILES): CCCCCCCCCC [decane]

vapor or sublimation pressure (351.45 K): 101.33 ± 0.46 kPa
Structure (SMILES): CCO [ethanol]
